In BindingDB's records for doi:10.7270/Q29G5KF0 (The Scripps Research Institute Molecular Screening Center, 2013):

Target: Kallikrein-7 (Homo sapiens, UniProt P49862)
Sequence (P49862 whole entry): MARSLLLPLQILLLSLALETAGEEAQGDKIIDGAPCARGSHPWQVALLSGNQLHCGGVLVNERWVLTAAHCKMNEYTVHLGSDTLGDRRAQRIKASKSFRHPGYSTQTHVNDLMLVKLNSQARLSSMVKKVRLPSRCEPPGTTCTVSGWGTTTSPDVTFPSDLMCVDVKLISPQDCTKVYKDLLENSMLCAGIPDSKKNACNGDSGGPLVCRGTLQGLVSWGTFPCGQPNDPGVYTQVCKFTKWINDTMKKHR

| SMILES | EC50 [µM] |
| --- | --- |
| COc1ccccc1C1CC(c2ccc(C)cc2)=Nc2nnnn21 (stereo not given) | 23.5 |
| CC1=NC2=C(C(=O)CC(C)(C)C2)C(c2cccnc2)C1C#N (stereo not given) [2,7,7-trimethyl-5-oxo-4-pyridin-3-yl-1,4,6,8-tetrahydroquinoline-3-carbonitrile] | > 69.5 |
| COc1ccc(C2C(C(=O)N3CCOCC3)=C(C)N=C3CC(C)(C)CC(=O)C32)c(OC)c1 (stereo not given) [MLS000076547] | 52.4 |
| COC(=O)C1=CN=CC(C(=O)OC)C1c1ccc(C(=O)OC)cc1 (stereo not given) [MLS000111732] | > 69.5 |
| COc1ccccc1C1CC(c2ccccc2)=Nc2nnnn21 (stereo not given) [SMR000107979] | 12.1 |
| COCCN1Cc2cc(=O)n3c(nc4ccccc43)c2=C1N [SMR000369291] | > 69.5 |
| COC(=O)c1ccc(C2C3=C(CC(C)(C)CC3=O)N=C(C)C2C#N)cc1 (stereo not given) [methyl 4-(3-cyano-2,7,7-trimethyl-5-oxo-1,4,6,8-tetrahydroquinolin-4-yl)benzoate] | 20.8 |
| COC(=O)c1[nH]n(-c2ccccc2)c2c(O)n(-c3ccccc3OC)c(=O)c1-2 [methyl 5-(2-methoxyphenyl)-4,6-bis(oxidanylidene)-1-phenyl-3a,6a-dihydropyrrolo[3,4-c]pyrazole-3-carboxylate] | > 69.5 |
| COC(=O)CC1=C(C(=O)OC)C(c2ccccc2[N+](=O)[O-])C(C#N)C(=N)O1 [methyl (4S)-6-amino-5-cyano-2-(2-methoxy-2-oxoethyl)-4-(2-nitrophenyl)-4H-pyran-3-carboxylate] | 8.2 |
| C=CCOC(=O)C1=C(C)N=C(SCC(=O)NC(=O)OCC)C(C#N)C1c1cccnc1 (stereo not given) [prop-2-enyl 5-cyano-6-[2-(ethoxycarbonylamino)-2-oxidanylidene-ethyl]sulfanyl-2-methyl-4-pyridin-3-yl-1,4-dihydropyridine-3-carboxylate] | 4.56 |
